From article PMC11189026 (Chemical communications (Cambridge, England), 2024)

Columns and labels:
aminopeptidase = assay: Aminopeptidase challenge of cyclised and uncyclised lanthipeptides; details: compared to the uncyclised compounds; Fig. S7
αvβ3 integrin [1] = molecular target: αvβ3 integrin (Homo sapiens, UniProt P05106+P06756); type: binding; details: ratio of Ki values, FP competition
αvβ3 integrin [2] = molecular target: αvβ3 integrin (UniProt P06756 31-1048; P05106 27-788); assay: fluorescence polarisation; competition of the lanthipeptides against fluorescently labelled c(RGDyK) for αvβ3 integrin; Ki from competition curves; details: both partners purified
Sequence of αvβ3 integrin (UniProt P06756 31-1048; P05106 27-788) (P06756 31-1048, chain 1 of 2): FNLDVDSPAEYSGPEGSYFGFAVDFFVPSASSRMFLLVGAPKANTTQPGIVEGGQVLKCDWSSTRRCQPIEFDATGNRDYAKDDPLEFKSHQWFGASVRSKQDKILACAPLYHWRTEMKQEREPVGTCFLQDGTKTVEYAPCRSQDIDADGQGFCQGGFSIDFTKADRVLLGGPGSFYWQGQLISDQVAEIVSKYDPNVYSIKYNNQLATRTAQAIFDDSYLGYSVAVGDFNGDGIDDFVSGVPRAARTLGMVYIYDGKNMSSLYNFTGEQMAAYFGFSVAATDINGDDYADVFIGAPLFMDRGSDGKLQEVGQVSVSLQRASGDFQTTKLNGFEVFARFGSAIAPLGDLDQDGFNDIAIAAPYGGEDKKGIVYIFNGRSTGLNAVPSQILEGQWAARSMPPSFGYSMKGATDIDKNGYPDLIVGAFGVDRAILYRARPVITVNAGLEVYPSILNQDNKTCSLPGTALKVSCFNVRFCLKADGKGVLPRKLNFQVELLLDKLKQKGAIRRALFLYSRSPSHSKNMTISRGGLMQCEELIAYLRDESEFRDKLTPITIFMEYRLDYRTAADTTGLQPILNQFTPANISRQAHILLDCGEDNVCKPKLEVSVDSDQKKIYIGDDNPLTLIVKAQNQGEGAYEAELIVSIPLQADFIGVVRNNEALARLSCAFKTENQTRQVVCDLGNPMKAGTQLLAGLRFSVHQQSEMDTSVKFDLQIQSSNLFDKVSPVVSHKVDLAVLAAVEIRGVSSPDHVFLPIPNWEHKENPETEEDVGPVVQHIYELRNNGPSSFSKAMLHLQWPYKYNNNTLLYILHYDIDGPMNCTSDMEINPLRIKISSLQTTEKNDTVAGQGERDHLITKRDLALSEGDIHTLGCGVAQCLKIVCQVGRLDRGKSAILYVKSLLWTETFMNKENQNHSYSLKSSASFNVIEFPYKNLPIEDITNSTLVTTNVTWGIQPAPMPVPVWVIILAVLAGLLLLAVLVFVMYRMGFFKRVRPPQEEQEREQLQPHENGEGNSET
Sequence of αvβ3 integrin (UniProt P06756 31-1048; P05106 27-788) (P05106 27-788, chain 2 of 2): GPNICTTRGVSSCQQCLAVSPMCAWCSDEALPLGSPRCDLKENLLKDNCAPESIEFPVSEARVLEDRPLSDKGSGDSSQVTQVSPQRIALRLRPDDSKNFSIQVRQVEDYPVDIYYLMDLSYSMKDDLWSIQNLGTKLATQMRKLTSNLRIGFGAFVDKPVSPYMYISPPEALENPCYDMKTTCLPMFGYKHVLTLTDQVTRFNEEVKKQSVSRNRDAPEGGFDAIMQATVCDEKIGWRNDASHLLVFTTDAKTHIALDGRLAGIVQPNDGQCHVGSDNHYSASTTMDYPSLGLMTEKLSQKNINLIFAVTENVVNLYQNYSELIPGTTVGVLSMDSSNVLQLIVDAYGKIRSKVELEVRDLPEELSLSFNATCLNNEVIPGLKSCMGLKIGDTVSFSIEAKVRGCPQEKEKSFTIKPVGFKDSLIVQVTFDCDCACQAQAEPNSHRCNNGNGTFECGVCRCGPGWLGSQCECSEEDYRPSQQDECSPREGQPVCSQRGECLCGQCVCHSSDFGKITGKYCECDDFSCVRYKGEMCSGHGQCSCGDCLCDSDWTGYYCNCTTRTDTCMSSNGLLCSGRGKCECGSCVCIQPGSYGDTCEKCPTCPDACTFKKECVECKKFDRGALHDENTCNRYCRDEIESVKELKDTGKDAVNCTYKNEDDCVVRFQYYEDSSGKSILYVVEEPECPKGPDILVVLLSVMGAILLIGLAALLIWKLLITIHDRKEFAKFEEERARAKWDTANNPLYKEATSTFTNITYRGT

Sequence of αvβ3 integrin (Homo sapiens, UniProt P05106+P06756) (P06756 31-992 limits assumed): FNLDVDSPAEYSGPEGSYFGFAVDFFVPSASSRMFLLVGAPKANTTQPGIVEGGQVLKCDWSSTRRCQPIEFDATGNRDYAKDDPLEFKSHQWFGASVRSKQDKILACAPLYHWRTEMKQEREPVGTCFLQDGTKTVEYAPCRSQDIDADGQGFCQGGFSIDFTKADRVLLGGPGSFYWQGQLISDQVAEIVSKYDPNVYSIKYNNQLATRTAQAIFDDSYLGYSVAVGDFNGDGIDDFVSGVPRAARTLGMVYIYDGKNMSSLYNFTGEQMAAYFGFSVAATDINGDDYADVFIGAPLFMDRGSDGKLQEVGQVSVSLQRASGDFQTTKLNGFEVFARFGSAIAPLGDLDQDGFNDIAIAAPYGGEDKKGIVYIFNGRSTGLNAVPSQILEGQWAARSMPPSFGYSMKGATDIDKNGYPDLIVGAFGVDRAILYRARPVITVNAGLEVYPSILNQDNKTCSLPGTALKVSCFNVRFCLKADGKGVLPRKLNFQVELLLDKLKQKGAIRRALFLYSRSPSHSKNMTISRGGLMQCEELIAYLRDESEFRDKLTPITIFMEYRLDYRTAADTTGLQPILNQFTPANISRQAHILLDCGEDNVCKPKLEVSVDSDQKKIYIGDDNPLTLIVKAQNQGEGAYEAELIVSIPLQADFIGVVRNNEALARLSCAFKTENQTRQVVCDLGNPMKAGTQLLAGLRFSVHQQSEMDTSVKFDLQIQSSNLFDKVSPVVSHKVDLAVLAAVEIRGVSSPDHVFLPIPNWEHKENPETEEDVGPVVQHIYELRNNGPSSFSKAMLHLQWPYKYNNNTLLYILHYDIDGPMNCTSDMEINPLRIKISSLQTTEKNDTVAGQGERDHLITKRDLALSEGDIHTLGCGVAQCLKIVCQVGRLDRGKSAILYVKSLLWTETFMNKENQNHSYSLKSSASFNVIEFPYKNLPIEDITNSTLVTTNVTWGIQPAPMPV
Sequence of αvβ3 integrin (Homo sapiens, UniProt P05106+P06756) (P05106 27-718 limits assumed): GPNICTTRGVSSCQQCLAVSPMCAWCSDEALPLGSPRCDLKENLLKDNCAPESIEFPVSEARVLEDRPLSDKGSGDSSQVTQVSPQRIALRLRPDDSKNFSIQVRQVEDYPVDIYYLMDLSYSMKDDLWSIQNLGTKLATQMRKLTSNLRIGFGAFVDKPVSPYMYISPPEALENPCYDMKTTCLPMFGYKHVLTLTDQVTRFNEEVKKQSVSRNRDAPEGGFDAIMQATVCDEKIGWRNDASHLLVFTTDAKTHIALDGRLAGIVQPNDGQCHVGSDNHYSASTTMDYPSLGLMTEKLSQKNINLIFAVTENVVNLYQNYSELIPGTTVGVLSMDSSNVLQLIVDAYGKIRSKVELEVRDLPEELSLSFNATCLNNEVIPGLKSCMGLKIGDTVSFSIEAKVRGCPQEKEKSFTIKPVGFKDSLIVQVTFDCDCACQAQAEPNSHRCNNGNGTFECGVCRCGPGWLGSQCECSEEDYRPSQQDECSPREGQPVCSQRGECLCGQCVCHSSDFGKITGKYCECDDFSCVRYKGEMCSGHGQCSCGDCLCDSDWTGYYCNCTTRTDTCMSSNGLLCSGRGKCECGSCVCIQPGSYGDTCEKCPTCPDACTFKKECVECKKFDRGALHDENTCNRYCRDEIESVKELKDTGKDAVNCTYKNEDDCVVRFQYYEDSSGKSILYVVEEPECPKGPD

Row | Molecule | resistance to aminopeptidase (aminopeptidase) | fold higher affinity for αvβ3 integrin, N-to-C cyclised vs noncyclised (αvβ3 integrin [1]) | Ki (αvβ3 integrin [2])
1 | CSCC[C@@H]1NC(=O)[C@H]2CSC[C@H](NC(=O)[C@H](C)NC(=O)[C@H](C)NC(=O)[C@H](CC(N)=O)NC(=O)[C@@H]3CSC[C@@H](NC(=O)[C@@H]4CCCN4C(=O)[C@@H]4CCCN4C1=O)C(=O)N[C@@H](Cc1ccc(O)cc1)C(=O)N[C@@H](CCCNC(=N)N)C(=O)NCC(=O)N[C@@H](CC(=O)O)C(=O)N[C@@H](CCC(=O)O)C(=O)N3)C(=O)N[C@@H](Cc1c[nH]cn1)C(=O)N[C@@H](CC(N)=O)C(=O)N[C@@H](Cc1c[nH]cn1)C(=O)N[C@@H](C)C(=O)N1CCC[C@H]1C(=O)N2 [c15RGD] | resistant to aminopeptidase | 4 fold | 
2 | CSCC[C@@H]1NC(=O)[C@H]2CSC[C@H](NC(=O)[C@H](C)NC(=O)[C@H](C)NC(=O)[C@H](CC(N)=O)NC(=O)[C@@H]3CSC[C@@H](NC(=O)[C@@H]4CCCN4C(=O)[C@@H]4CCCN4C1=O)C(=O)N[C@@H](Cc1ccc(O)cc1)C(=O)N[C@@H](Cc1c[nH]c4ccccc14)C(=O)N[C@@H](CCCNC(=N)N)C(=O)NCC(=O)N[C@@H](CC(=O)O)C(=O)N3)C(=O)N[C@@H](Cc1c[nH]cn1)C(=O)N[C@@H](CC(N)=O)C(=O)N[C@@H](Cc1c[nH]cn1)C(=O)N[C@@H](C)C(=O)N1CCC[C@H]1C(=O)N2 [c16RGD] | resistant to aminopeptidase |  | 
3 | cyclo(AACHNHAPSMPPSYWRGDCN) (thioether (positions not given here); also: lanthionine linkages installed by ProcM, places not given here, thioether: lanthionine) [N-to-C cyclised prochlorosin 16RGD (OaAEP1-cyclised lanthipeptide)] |  |  | 0.28 ± 0.03 µM
4 | cyclo(AACHNHAPSMPPSYRGDECN) (thioether (positions not given here); also: lanthionine linkages installed by ProcM, places not given here, thioether: lanthionine) [N-to-C cyclised prochlorosin 15RGD (OaAEP1-cyclised lanthipeptide)] |  |  | 7.7 ± 1.3 µM
